# Results as given in ChEMBL document CHEMBL3991947, “D-serine transporter inhibitors as pharmaceutical compositions for the treatment of central nervous system disorders” (2014).
# Target: T1, Amino acid transporter (Rattus norvegicus) (UniProt Q9Z1J7)
# T1 sequence (whole entry): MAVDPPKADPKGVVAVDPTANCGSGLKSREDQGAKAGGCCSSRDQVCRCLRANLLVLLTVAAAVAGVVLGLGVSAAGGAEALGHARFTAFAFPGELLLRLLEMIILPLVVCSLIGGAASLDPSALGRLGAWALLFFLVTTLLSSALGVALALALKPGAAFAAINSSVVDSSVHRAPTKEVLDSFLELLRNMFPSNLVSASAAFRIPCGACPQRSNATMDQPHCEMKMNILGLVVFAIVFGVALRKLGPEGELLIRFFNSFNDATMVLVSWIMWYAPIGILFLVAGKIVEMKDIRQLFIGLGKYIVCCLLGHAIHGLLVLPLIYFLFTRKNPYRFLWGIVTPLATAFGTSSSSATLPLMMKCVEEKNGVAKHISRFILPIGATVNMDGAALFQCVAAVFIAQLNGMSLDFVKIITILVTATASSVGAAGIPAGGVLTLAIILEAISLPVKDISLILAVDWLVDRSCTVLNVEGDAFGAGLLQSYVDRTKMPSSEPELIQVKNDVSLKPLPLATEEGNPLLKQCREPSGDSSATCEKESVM
# Test: Inhibition of ASCT2 mediated [3H]-D-serine uptake in rat hippocampal astrocytes at 1 mM after 5 mins by beta counting analysis
# Format: cell-based
row,Structure (SMILES),inhibition
1,"Cc1ccccc1C[C@H]1CNC(C(=O)O)C1 (single isomer, unassigned)",> 25%
2,NC(C(=O)O)C(O)c1cccnc1 (racemic),> 25%
3,O=C(O)[C@@H]1Cc2ccccc2CN1,> 25%
4,CNC(C(=O)O)c1ccc(OC)cc1 (stereo unspecified),> 25%
5,COC(=O)[C@@H](N)c1ccccc1,> 25%
6,N[C@@H](Cc1cccs1)C(=O)O,> 25%
7,NC(C(=O)O)c1cccc(Br)c1 (stereo unspecified),> 25%
8,"O=C(O)C1C[C@@H](Cc2ccccc2I)CN1 (single isomer, unassigned)",> 25%
9,Cc1ccccc1[C@H](N)C(=O)O,> 25%
10,N[C@H]1CCOC1=O,> 25%
11,"O=C(O)C1C[C@@H](Cc2ccc(Cl)cc2Cl)CN1 (single isomer, unassigned)",> 25%
12,N[C@@H](CCS)C(=O)O,> 25%
13,"N#Cc1ccc(C[C@H]2CNC(C(=O)O)C2)cc1 (single isomer, unassigned)",> 25%
14,Nc1ccccc1C(=O)C[C@H](N)C(=O)O,> 25%
15,N[C@@H](Cc1c[nH]c2ccccc12)C(=O)O,> 25%
16,NC(C(=O)O)C(O)c1cccs1 (racemic),> 25%
17,O=C(O)[C@@H]1C[C@@H](Oc2cccc(Cl)c2)CN1,> 25%
18,CNC[C@H](N)C(=O)O,> 25%
19,NC(Cc1c[nH]c2cc(F)ccc12)C(=O)O (stereo unspecified),> 25%
20,NC(=O)C[C@@H](N)C(=O)O,> 25%
21,N[C@@H](Cn1oc(=O)[nH]c1=O)C(=O)O,> 25%
22,NC(C(=O)O)C12CC3CC(CC(C3)C1)C2 (stereo unspecified),> 25%
23,O=C(O)[C@@H]1C[C@@H](Cc2ccccn2)CN1,> 25%
24,O=C(Nc1ccc2ccccc2c1)[C@@H]1CCCN1,> 25%
25,"O=C(O)C1C[C@@H](Cc2ccccc2Br)CN1 (single isomer, unassigned)",> 25%
26,N[C@@H](CCC(=O)NO)C(=O)O,> 25%

row,Structure (SMILES),inhibition
1,CC(O)[C@H](C)[C@H](N)C(=O)O (stereo partly specified),> 25%
2,O=C(O)[C@@H]1C[C@@H](Cc2ccco2)CN1,> 25%
3,O=C(O)[C@@H]1C[C@@H](Cc2ccccc2C(F)(F)F)CN1,> 25%
4,COc1ccc(C(N)C(=O)O)cc1 (stereo unspecified),> 25%
5,N[C@@H](CCCc1ccccc1)C(=O)O,> 25%
6,C[C@H]1CCN[C@@H]1C(=O)O,> 25%
7,N[C@@H](Cc1c[nH]c2ccc(O)cc12)C(=O)O,> 25%
8,NC(CC(=O)Nc1ccccc1)C(=O)O (stereo unspecified),> 25%
9,"N#Cc1ccccc1C[C@H]1CNC(C(=O)O)C1 (single isomer, unassigned)",> 25%
10,O=C(O)C(c1ccc(F)cc1)N1CCOCC1 (stereo unspecified),> 25%
11,NC(Cc1c[nH]c2cccc(F)c12)C(=O)O (stereo unspecified),> 25%
12,N[C@@H](CCO)C(=O)O,> 25%
13,"O=C(O)C1C[C@@H](Cc2ccc([N+](=O)[O-])cc2)CN1 (single isomer, unassigned)",> 25%
14,O=C(/C=C/c1c(C(=O)O)[nH]c2cc(Cl)cc(Cl)c12)Nc1ccccc1,> 25%
15,"Cc1ccc(C[C@H]2CNC(C(=O)O)C2)cc1 (single isomer, unassigned)",> 25%
16,N[C@@H](CC(=O)OCc1ccccc1)C(=O)O,> 25%
17,O=C(O)C1NCc2ccccc21 (stereo unspecified),> 25%
18,N[C@@H](Cc1c[nH]c2ccc(F)cc12)C(=O)O,> 25%
19,[N-]=[N+]=CC(=O)CC[C@H](N)C(=O)O,> 25%
20,O=C(O)[C@@H]1C[C@H](Cc2cccc(Cl)c2)CN1,> 25%
21,COC[C@H](N)C(=O)O,> 25%
22,NC(C(=O)O)c1nnn[nH]1 (stereo unspecified),> 25%
23,N[C@@H](C(=O)O)C1=CCC=CC1,> 25%
24,N[C@@H](CS)C(=O)O,> 25%
25,O=C(O)[C@@H]1CCN1,> 25%
26,C[C@H](N)C(=O)O,> 25%

row,Structure (SMILES),inhibition
1,NC(C(=O)O)c1ccccc1Cl (stereo unspecified),> 25%
2,NC(C(=O)O)c1cc(O)cc(O)c1 (stereo unspecified),> 25%
3,C#CC[C@H]1CN[C@H](C(=O)O)C1,> 25%
4,N[C@H](C(=O)O)c1cccc2ccccc12,> 25%
5,N[C@@H](Cc1ccc(O)c(O)c1)C(=O)O,> 25%
6,"O=C(O)C1C[C@@H](Cc2ccc(F)c(F)c2)CN1 (single isomer, unassigned)",> 25%
7,N[C@H](C(=O)O)c1ccco1,> 25%
8,NC1(C(=O)O)CC1,> 25%
9,C#CCC[C@H](N)C(=O)O,> 25%
10,"O=C(O)C1C[C@@H](Cc2ccccc2Cl)CN1 (single isomer, unassigned)",> 25%
11,N[C@@H](CCC(=O)Nc1ccc2ccccc2c1)C(=O)O,> 25%
12,NC(C(=O)O)c1cc(O)ccc1Cl (stereo unspecified),> 25%
13,O=C(O)c1cc2sccc2[nH]1,> 25%
14,CCSC[C@H](N)C(=O)O,> 25%
15,O=C(O)[C@@H]1C[C@H](Oc2cccc(Cl)c2)CN1,> 25%
16,Cc1ccc(SC[C@H](N)C(=O)O)cc1,> 25%
17,N[C@H](C(=O)O)c1ccc(O)c(C(=O)O)c1,> 25%
18,NC(C(=O)O)c1cccc([N+](=O)[O-])c1 (stereo unspecified),> 25%
19,"O=C(O)C1C[C@@H](Cc2ccccc2F)CN1 (single isomer, unassigned)",> 25%
20,O=C(O)[C@@H]1NCC[C@H]1Cc1ccccc1,> 25%
21,N[C@H](C(=O)O)C1CCCCC1,> 25%
22,NC(CCC(=O)Nc1ccccc1)C(=O)O (stereo unspecified),> 25%
23,N[C@H](C(=O)O)c1cccc(O)c1,> 25%
24,O=C(O)[C@@H]1C[C@@H](C2CCCCC2)CN1,> 25%
25,"O=C(O)C1C[C@@H](Cc2ccc(Br)cc2)CN1 (single isomer, unassigned)",> 25%
26,Nc1ccccc1C(=O)C[C@@H](N)C(=O)O,> 25%

row,Structure (SMILES),inhibition
1,"O=C(O)C1C[C@@H](Cc2ccc(Cl)cc2)CN1 (single isomer, unassigned)",> 25%
2,NC(C(=O)O)c1ccc2c(c1)OCO2 (stereo unspecified),> 25%
3,O=C(Nc1cccc2ccccc12)[C@@H]1C[C@@H](O)CN1,> 25%
4,N[C@@H](CC1CC1)C(=O)O,> 25%
5,"O=C(O)C1C[C@@H](Cc2cccc3ccccc23)CN1 (single isomer, unassigned)",> 25%
6,NC(C(=O)O)c1ccc(F)c(Cl)c1 (stereo unspecified),> 25%
7,Cc1cc(C(N)C(=O)O)ccc1F (stereo unspecified),> 25%
8,NCC(=O)O,> 25%
9,C[C@@H](N)C(=O)O,> 25%
10,O=C(O)[C@H]1NCCC1c1ccccc1 (stereo partly specified),> 25%
11,O=C(O)[C@H]1NCC[C@@H]1c1ccccc1,> 25%
12,CSCC[C@H](N)C(=O)O,> 25%
13,Cc1ccc(C(N)C(=O)O)cc1Cl (stereo unspecified),> 25%
14,O=C(O)[C@@H]1C[C@H](Cc2ccccc2)CN1,> 25%
15,NC(C(=O)O)c1ccc(C(=O)O)c(O)c1 (stereo unspecified),> 25%
16,"N#Cc1cccc(C[C@H]2CNC(C(=O)O)C2)c1 (single isomer, unassigned)",> 25%
17,C[C@@H](O)[C@@H](N)C(=O)O (racemic),> 25%
18,[N-]=[N+]=NCC[C@H](N)C(=O)O,> 25%
19,CC[C@H](N)C(=O)O,> 25%
20,NC(C(=O)O)c1cccc(F)c1 (stereo unspecified),> 25%
21,O=C(O)[C@@H]1C[C@@H](Cc2ccc3ccccc3c2)CN1,> 25%
22,O=C(O)[C@@H]1C=CCN1,> 25%
23,CCC[C@H](N)C(=O)O,> 25%
24,CC(C)[C@H](N)C(=O)O,> 25%
25,"CC(C)(C)c1ccc(C[C@H]2CNC(C(=O)O)C2)cc1 (single isomer, unassigned)",> 25%
26,O=C(O)/C(=C/c1c(C(=O)O)[nH]c2cc(Cl)cc(Cl)c12)c1ccccc1,> 25%

row,Structure (SMILES),inhibition
1,N[C@@H](Cc1ccc(O)cc1)C(=O)O,> 25%
2,"O=C(O)C1C[C@@H](Cc2cccc(F)c2)CN1 (single isomer, unassigned)",> 25%
3,"O=C(O)C1C[C@@H](Cc2ccncc2)CN1 (single isomer, unassigned)",> 25%
4,O=C(O)[C@@H]1CN1,> 25%
5,C[C@H](O)[C@@H](N)C(=O)O,> 25%
6,O=C(O)C1Cc2c([nH]c3ccccc23)CN1 (stereo unspecified),> 25%
7,N[C@H](CCO)C(=O)O,> 25%
8,"C=CC[C@H]1CNC(C(=O)O)C1 (single isomer, unassigned)",> 25%
9,NC(C(=O)O)C1CC2C=CC1C2 (stereo unspecified),> 25%
10,NC(C(=O)O)c1ccc(F)c(F)c1 (stereo unspecified),> 25%
11,C=CCC(N)C(=O)O (stereo unspecified),> 25%
12,NC(C(=O)O)c1ccc([N+](=O)[O-])cc1 (stereo unspecified),> 25%
13,N[C@@H](Cc1ccc2ccccc2c1)C(=O)O,> 25%
14,O=C(O)[C@@H]1C[C@@H](Cc2ccc(C(F)(F)F)cc2)CN1,> 25%
15,N[C@@H](CO)C(=O)Nc1ccc2ccccc2c1,> 25%
16,N[C@H](C(=O)O)c1ccc(C(F)(F)F)cc1,> 25%
17,NC1(C(=O)O)CCC1,> 25%
18,N[C@@H](CCC(=O)Nc1cccc2ccccc12)C(=O)O,> 25%
19,O=C(O)[C@H]1C[C@@H](F)CN1,> 25%
20,"O=C(O)C1C[C@@H](Cc2ccc(I)cc2)CN1 (single isomer, unassigned)",> 25%
21,NC(CC(=O)c1ccccc1)C(=O)O (stereo unspecified),> 25%
22,CC(C)(S)[C@H](N)C(=O)O,> 25%
